Literature values as cited in patent publication US5668151A, “Dihydropyridine NPY antagonists: piperidine derivatives” (Bristol-Myers Squibb Company, priority 1996, dated 1997).

How the values were obtained:
[1] = system: NPY-induced Ca++ entry in HEL cells

Compound | effect on the vasoconstrictive activity of the NPY1 agonist [Leu31, Pro34]NPY (rat femoral artery) | effect on the NPY2 agonist NPY13-36 (rat femoral artery; Y2 receptor functional selectivity) | pA2 [1]
N=C(N)N(CCCCCCNCc1ccc2ccccc2c1)CCCCCCN(CCCCCCNCc1ccc2ccccc2c1)C(=N)N [Example 6b] | no effect | antagonized | 
N=C(NCCCc1cnc[nH]1)NCCC(c1cc(F)cc(F)c1)c1ccccn1 (stereo not drawn) [He 90481] |  |  | 4.43
